Tested on: PSMA-expressing LNCAP cancer xenografts
Test: Biodistribution and tumor-to-background contrast ratios of 18F-labeled tracers
Format: in vivo, mouse (NODSCID 1L2RγKO male mice)
Method: LNCap cell line was obtained from ATCC (LNCaP clone FGC, CRL-1740). It was established from a metastatic site of left supraclavicular lymph node of human prostatic adenocarcinoma. Cells were cultured in PRMI 1640 medium supplemented with 10% FBS, penicillin (100 U/mL) and streptomycin (100 μg/mL) at 37° C. in a humidified incubator containing 5% CO2. Cells grown to 80-90% confluence were then washed with sterile phosphate-buffered saline (1×PBS pH 7.4) and trypsinization. The collected cells number was counted with a Hausser Scientific (Horsham, Pa.) Hemacytometer.
Imaging and biodistribution experiments were performed using NODSCID 1L2RγKO male mice. Mice were anesthetized by inhalation with 2% isoflurane in oxygen, and implanted subcutaneously with 1×10^7 LNCaP cells behind left shoulder. Mice were imaged or used in biodistribution studies when the tumor grew up to reach 5-8 mm in diameter during 5-6 weeks.
PET imaging experiments were conducted using Siemens Inveon micro PET/CT scanner. Each tumor bearing mouse was injected 6-8 MBq of F-18 labeled tracer through the tail vein under anesthesia (2% isoflurane in oxygen). The mice were allowed to recover and roam freely in their cage. After 50 min, the mice were sedated again with 2% isoflurane in oxygen inhalation and positioned in the scanner. A 10-min CT scan was conducted first for localization and attenuation correction after segmentation for reconstructing the PET images. Then, a 10-min static PET imaging was performed to determined uptake in tumor and other organs. The mice were kept warm by a heating pad during acquisition. For imaging studies acquired at 2 h post-injection (p.i.), the mice were placed in the micro PET/CT scanner at 110 min p.i. Then, the CT and PET acquisitions were conducted as described above.
For biodistribution studies, the mice were injected with the radiotracer as described above. At predetermined time points (1 or 2 h), the mice was anesthetized with 2% isoflurane inhalation, and euthanized by CO2 inhalation. Blood was withdrawn immediately from the heart, and the organs/tissues of interest were collected. The collected organs/tissues were weighed and counted using an automatic gamma counter. The uptake in each organ/tissue was normalized to the injected dose using a standard curve, and expressed as the percentage of the injected dose per gram of tissue (% ID/g).

Row | Compound | Biodistribution Adrenal glands (1 h) [% ID/g] | Biodistribution Blood (1 h) [% ID/g] | Biodistribution Bone (1 h) [% ID/g] | Biodistribution Brain (1 h) [% ID/g] | Biodistribution Fat (1 h) [% ID/g] | Biodistribution Heart (1 h) [% ID/g] | Biodistribution Intestine (1 h) [% ID/g] | Biodistribution Kidneys (1 h) [% ID/g] | Biodistribution Liver (1 h) [% ID/g] | Biodistribution Lungs (1 h) [% ID/g] | Biodistribution Muscle (1 h) [% ID/g] | Biodistribution Pancreas (1 h) [% ID/g] | Biodistribution Spleen (1 h) [% ID/g] | Biodistribution Stomach (1 h) [% ID/g] | Biodistribution Testes (1 h) [% ID/g] | Biodistribution Tumor (1 h) [% ID/g] | Tumor:Blood contrast ratio (1 h) | Tumor:Muscle contrast ratio (1 h) | Tumor:kidney contrast ratio (1 h) | Biodistribution Adrenal glands (2 h) [% ID/g] | also measured
1 | C[N+](C)(Cc1ccc(C(=O)NCCCC[C@H](NC(=O)N[C@@H](CCC(=O)O)C(=O)O)C(=O)O)cc1)C[B-](F)(F)[18F] [F-18 HTK-01069] | 4.77 ± 1.75 | 0.57 ± 0.15 | 0.36 ± 0.02 | 0.04 ± 0.01 | 0.99 ± 0.39 | 0.30 ± 0.06 | 0.54 ± 0.11 | 114 ± 41.3 | 2.90 ± 0.56 | 1.37 ± 0.36 | 0.26 ± 0.08 | 0.55 ± 0.16 | 2.67 ± 0.98 | 0.12 ± 0.05 | 0.62 ± 0.15 | 6.04 ± 1.24 | 10.8 ± 1.64 | 23.4 ± 3.71 | 0.07 ± 0.06 | 3.66 ± 2.01 | Biodistribution Blood (2 h): 0.24 ± 0.10 % ID/g; Biodistribution Bone (2 h): 0.30 ± 0.10 % ID/g; Biodistribution Brain (2 h): 0.04 ± 0.01 % ID/g; Biodistribution Fat (2 h): 0.86 ± 0.53 % ID/g; Biodistribution Heart (2 h): 0.20 ± 0.08 % ID/g; Biodistribution Intestine (2 h): 0.72 ± 0.15 % ID/g; Biodistribution Kidneys (2 h): 103 ± 56.7 % ID/g; Biodistribution Liver (2 h): 2.75 ± 0.56 % ID/g; Biodistribution Lungs (2 h): 0.99 ± 0.32 % ID/g; Biodistribution Muscle (2 h): 0.15 ± 0.04 % ID/g; Biodistribution Pancreas (2 h): 0.41 ± 0.20 % ID/g; Biodistribution Spleen (2 h): 1.93 ± 0.85 % ID/g; Biodistribution Stomach (2 h): 0.09 ± 0.03 % ID/g; Biodistribution Testes (2 h): 0.40 ± 0.06 % ID/g; Biodistribution Tumor (2 h): 5.47 ± 0.75 % ID/g; Tumor:Blood contrast ratio (2 h): 26.9 ± 13.3; Tumor:Muscle contrast ratio (2 h): 37.4 ± 8.86; Tumor:kidney contrast ratio (2 h): 0.07 ± 0.03
2 | C[N+](C)(Cc1cn(Cc2ccc(C(=O)NCCCC[C@H](NC(=O)N[C@@H](CCC(=O)O)C(=O)O)C(=O)O)cc2)nn1)C[B-](F)(F)[18F] [F-18 HTK-01070] | 4.65 ± 1.75 | 0.52 ± 0.06 | 0.44 ± 0.09 | 0.04 ± 0.01 | 0.73 ± 0.26 | 0.33 ± 0.08 | 0.33 ± 0.05 | 71.7 ± 18.0 | 1.69 ± 0.19 | 1.39 ± 0.17 | 0.23 ± 0.04 | 0.33 ± 0.05 | 5.01 ± 0.64 | 0.10 ± 0.03 | 0.67 ± 0.17 | 8.28 ± 1.25 | 16.0 ± 1.37 | 37.3 ± 9.53 | 0.12 ± 0.04 | 2.11 ± 0.78 | Biodistribution Blood (2 h): 0.23 ± 0.11 % ID/g; Biodistribution Bone (2 h): 0.30 ± 0.06 % ID/g; Biodistribution Brain (2 h): 0.03 ± 0.01 % ID/g; Biodistribution Fat (2 h): 0.62 ± 0.34 % ID/g; Biodistribution Heart (2 h): 0.13 ± 0.06 % ID/g; Biodistribution Intestine (2 h): 0.29 ± 0.08 % ID/g; Biodistribution Kidneys (2 h): 68.5 ± 28.7 % ID/g; Biodistribution Liver (2 h): 1.50 ± 0.30 % ID/g; Biodistribution Lungs (2 h): 0.69 ± 0.23 % ID/g; Biodistribution Muscle (2 h): 0.12 ± 0.03 % ID/g; Biodistribution Pancreas (2 h): 0.21 ± 0.07 % ID/g; Biodistribution Spleen (2 h): 1.30 ± 0.48 % ID/g; Biodistribution Stomach (2 h): 0.06 ± 0.02 % ID/g; Biodistribution Testes (2 h): 0.36 ± 0.21 % ID/g; Biodistribution Tumor (2 h): 7.56 ± 1.57 % ID/g; Tumor:Blood contrast ratio (2 h): 38.9 ± 18.8; Tumor:Muscle contrast ratio (2 h): 67.7 ± 14.8; Tumor:kidney contrast ratio (2 h): 0.14 ± 0.10
